Data set [1] has as its target T1, human M1 muscarinic receptor (Homo sapiens, UniProt P11229).
T1 sequence (P11229 1-460): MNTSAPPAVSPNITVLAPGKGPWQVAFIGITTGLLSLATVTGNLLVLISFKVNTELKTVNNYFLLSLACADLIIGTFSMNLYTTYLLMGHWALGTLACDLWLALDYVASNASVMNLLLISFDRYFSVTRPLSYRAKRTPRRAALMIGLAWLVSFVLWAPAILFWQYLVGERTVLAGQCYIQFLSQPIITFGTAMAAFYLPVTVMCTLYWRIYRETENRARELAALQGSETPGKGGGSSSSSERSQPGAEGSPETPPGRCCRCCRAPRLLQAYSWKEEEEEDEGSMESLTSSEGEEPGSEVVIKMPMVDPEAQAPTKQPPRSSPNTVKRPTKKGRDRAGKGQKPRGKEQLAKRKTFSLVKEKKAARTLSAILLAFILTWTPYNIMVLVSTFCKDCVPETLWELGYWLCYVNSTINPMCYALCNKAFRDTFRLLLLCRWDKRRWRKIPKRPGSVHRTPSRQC
Kind of data set: V0162 receptor binding in vitro, CHO cells transfected with human M1, tritiated pirenzepine. Particulars: M1(h). From the text:
(§1) The purpose of this study is to determine an affinity constant for the compound with respect to the three classes of human muscarinic receptors in vitro. The model chosen is the CHO cell stably transfected with cDNAs coding for each of the three human muscarinic receptors. […] Binding with respect to the receptors is defined as follows: the difference between overall binding and non-specific binding determined in the presence of excess cold ligand. The results are expressed as a percentage of the optimal binding obtained with the model ligand (100%). […] The inhibition constants (Ki) were calculated by means of the Cheng Prusoff equation (Ki=IC50/(1+L/KD)); where L is the radioligand concentration and KD the affinity of the radioligand for the receptor.

Data set [2] deals with T2, human M3 muscarinic receptor (Homo sapiens, UniProt P20309).
T2 construct: expressed in transfected cells; host or cells: CHO cells, stably transfected
T2 sequence (P20309 whole entry): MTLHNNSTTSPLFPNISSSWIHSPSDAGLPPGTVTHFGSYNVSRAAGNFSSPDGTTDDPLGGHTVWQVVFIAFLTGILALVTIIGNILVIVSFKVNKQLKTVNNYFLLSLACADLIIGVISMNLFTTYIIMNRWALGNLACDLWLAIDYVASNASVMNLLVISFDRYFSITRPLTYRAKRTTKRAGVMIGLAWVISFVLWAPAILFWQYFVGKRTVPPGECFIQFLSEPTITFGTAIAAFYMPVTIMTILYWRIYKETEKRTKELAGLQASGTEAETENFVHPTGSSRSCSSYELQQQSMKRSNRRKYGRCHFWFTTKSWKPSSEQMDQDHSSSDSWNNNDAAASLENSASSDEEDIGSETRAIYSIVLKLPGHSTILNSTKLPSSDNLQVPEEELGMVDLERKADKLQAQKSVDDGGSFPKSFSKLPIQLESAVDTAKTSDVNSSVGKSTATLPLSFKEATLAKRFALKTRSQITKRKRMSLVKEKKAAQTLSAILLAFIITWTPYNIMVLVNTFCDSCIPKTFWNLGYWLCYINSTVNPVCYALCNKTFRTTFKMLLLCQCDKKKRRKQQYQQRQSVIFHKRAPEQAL
Kind of data set: V0162 receptor binding in vitro, CHO cells transfected with human M3, 4-DAMP. Particulars: M3 (h).
Excerpt: as §1

The subject of data set [3] is pilocarpine-induced sialorrhea in the rat. The experiment in a line: Pilocarpine-induced sialorrhea, inhibition of salivary secretion after p.o. administration. It is filed as in vivo. As to the method: For the purpose of evaluating anticholinergic activity in the validated model of pilocarpine-induced sialorrhea in the rat, groups of animals were fasted and the next day the products were administered orally 90 minutes before intra-peritoneal injection of pilocarpine (0.5 mg.kg^-1). The compounds tested were administered in doses of 2.5, 5 and 10 mg.kg^-1. […] The animals were anaesthetized and then the salivary secretion was collected for 60 minutes, every ten minutes. The samples were then dried and weighed.

Data set [4] in a line: Anticholinergic activity in vivo by intravenous administration.
In data set [5] the test system is explants taken from the guinea pig (contractions induced by acetylcholine). Kind of data set: Anticholinergic effect ex vivo, contractions induced by acetylcholine in explants. Particulars: for Response to Acetylcholine Max. Response (%): test curve, mean ± sem, n = 6. As to the method: The purpose of these experiments was to confirm the anticholinergic activity of […] on a living organ. In order to do so, explants taken from the guinea pig were kept alive. The morphology of the preparations was homogeneous from batch to batch. Each explant was placed in a survival chamber and immersed in a physiological solution of composition (mM): NaCl (118); KCl (4.7); […] CaCl2 (2.5); […] NaHCO3 (25); glucose (11), at a temperature of 37° C. and with a pH of 7.4. Before the test, the following agents were dispersed in the survival buffer in order to block non-specific responses to acetylcholine: […] (10^-6 M) to block β2-adrenergic responses; cimetidine (10^-5 M) to block type 2 histaminergic responses; methysergide (10^-6 M) to block serotoninergic responses and indomethacine (3×10^-6 M) to prevent the appearance of muscle tonus due to a release of prostaglandins by the preparation itself. At the time of acquisition, the tissues were connected to […] in order to continuously record the variations in tension. After 60 minutes of calibration of the preparations, the tissues were exposed to variable concentrations of […]. The contractions induced by acetylcholine as dose responses were carried out in order to determine the response of the preparation to the stimulation in the absence of the putative inhibitor.

A short description of data set [6]: Transmucosal passage: repeated nasal administration of V0162 suspension, circulating level and tolerance. In kind it is in vivo, rabbit. Particulars: for Level of V0162: rabbit plasma, nasal 0.4% suspension twice per day. As to the method: 48 rabbits were treated nasally daily for 28 days with a suspension titrated at 0.4% mass/volume. […] Each group was made up of males and females equally. Nasal administration of the suspension was carried out twice per day for 28 days. Plasma samples were taken on D1, D2, D7, D28, D35. The samples were analyzed by an LC/MS/MS method validated by assay of V0162.

Data set [7] concerns increase in intravesical pressure induced by bethanechol. Kind of data set: Intravesical pressure (cystomanometry) after bethanechol. In kind it is in vivo. Particulars: compared to oxybutyrine. On the procedure: The objective of this study was to measure intravesical pressure and salivation, in the animal, for the purpose of testing the uroselectivity of the anti-muscarinics, when they are administered orally and vaginally. In order to evaluate intravesical pressure, the bladders of the animals were catheterized in order to make possible recording (cystomanometry: continuous recording of the vesical pressure). The products to be tested were administered either per os at a dose of 5 mg.Kg^-1 or by local application of a suspension of […] at 0.4% in a vehicle with a base of cyclodextrin and arginine. The jugular vein was also cannulated in order to administer a muscarinic agonist: bethanechol (200 μg/kg, iv). At each administration of bethanechol, the variation of vesical pressure (ΔPV, mmHg) and the quantity of saliva (mg) were evaluated and quantified. The positive control was made up of a group of animals treated with oxybutyrine (Ditropan®; 10, 100 and 1000 μg/kg, iv).

In data set [8] the test system is M3 muscarinic receptors versus M2 muscarinic receptors. The conditions noted are these: cited from earlier work.
A further data set relates to salivation. The conditions noted are these: preclinical animal studies; cited from earlier work.
The mark [9] stands for this setting: p.o. 5 mg·kg^−1, comparison of racemic mixture and enantiomers (Table 4).
The mark [10] stands for this setting: p.o. 2.5 mg·kg^−1, 90 min before pilocarpine.
Setting [11] is: p.o. 10 mg·kg^−1, 90 min before pilocarpine.

Molecules are shown by their SMILES. Marks after values point to notes of the source that are not given here.

Turning to `c1ccc2c(c1)Sc1ccccc1N2CC1CN2CCC1CC2` (racemic) [10-[(3R,3S)-1-azabicyclo[2.2.2]oct-3-ylmethyl]-10H-phenothiazine, reference compound], the “nH (Hill coefficient)” value in data set [1] was found to be 0.8; in data set [2] it was 1.2. Further, the “Inhibition (%)” value in data set [3] (setting [9]) is 73* %.

`c1ccc2c(c1)Sc1ccccc1N2C[C@@H]1CN2CCC1CC2` [10-[(3S)-1-azabicyclo[2.2.2]oct-3-ylmethyl]-10H-phenothiazine, reference compound]: the “nH (Hill coefficient)” value came to 1.1 in [1] and 1.0 in [2]. The “Inhibition (%)” value in data set [3] (setting [9]) is given as −4%. Also, in [4], the “Anticholinergic activity in vivo” value is “does not demonstrate clear activity”.

Turning to `CN1[C@@H]2CC[C@H]1C[C@@H](OC(=O)C(CO)c1ccccc1)C2` (some centres unmarked) [Atropine, reference compound], the “Inhibition (%)” value in [3] (1 mg·kg^−1, positive control) is given as 98* %.

`c1ccc2c(c1)Sc1ccccc1N2C[C@H]1CN2CCC1CC2` [V0162, 10-[(3R)-1-azabicyclo[2.2.2]oct-3-ylmethyl]-10H-phenothiazine]: the “Response to Acetylcholine Max. Response (%)” value in [5] (V0162 30 nM), in [5] (V0162 100 nM) and in [5] (V0162 300 nM) was 98 ± 1% throughout. Further, the “Mode of action towards acetylcholine” value in [5] (ex vivo model) is “behaves like an antagonistic competitor of acetylcholine”. Also, the “Inhibition (%)” value in data set [3] (setting [10]) was 29%; in data set [3] (p.o. 5 mg·kg^−1, 90 min before pilocarpine (Table 3)), 67* %; in data set [3] (setting [9]) it was 77* %; in data set [3] (setting [11]) it was 95* %. In addition, the “Secretion” value in [3] (setting [10]) is reported as 735.6 mg; in data set [3] (p.o. 5 mg·kg^−1, 90 min before pilocarpine) it was 338.9 mg; in data set [3] (setting [11]) it was 45.1 mg. In addition, the “Level of V0162” value was 0.88 ng/mL in data set [6] (Day 1/4 hours after administration); “BLQ” in data set [6] (Day 1/before administration); 0.22 ng/mL in [6] (Day 2/before administration); 0.41 ng/mL in data set [6] (Day 7/before administration); 1.35 ng/mL in data set [6] (Day 28/4 hours after administration); 0.23 ng/mL in data set [6] (Day 28/24 hours after administration). Besides, the “Level of V0162” value in data set [6] (Day 35/before administration) is on record as “BLQ”. Further, the “Toxic effects (histological plane, respiratory rhythm, heart rate, behaviour)” value in data set [6] (rabbit, in vivo) is recorded as “do not lead to toxic effects”. Besides, the “Effects on the nasal mucosa” value in data set [6] (rabbit, nasal 0.4% suspension twice per day for 28 days) was “does not induce deleterious effects on the nasal mucosa”. In addition, the Circulating level in data set [6] (rabbit, nasal administration of a suspension) is ~4 nM. Besides, the “Increase in intravesical pressure induced by bethanecol” value in [7] (local application of 0.4% suspension, bethanechol 200 μg/kg iv) is “significantly reduces the increase in intravesical pressure”; in data set [7] (per os 5 mg.Kg^−1, bethanechol 200 μg/kg iv), “significantly reduces the increase in intravesical pressure”. Besides, the “Anticholinergic activity in vivo” value in [4] is “anticholinergic by intravenous administration”.

In the case of `NC(=O)C(c1ccccc1)(c1ccccc1)[C@@H]1CCN(CCc2ccc3c(c2)CCO3)C1` [darifenacine], in data set [8], the “Affinity for M3 muscarinic receptors higher than for M2 muscarinic receptors” value was 7 times; the “Selectivity between M3 and M2 receptor” value is “more selective with respect to the M3 receptor than with respect to the M2”. Also, in the data set with salivation, the Effect on salivation entry is “reduce salivation”.

Turning to `CCN(CC)CC#CCOC(=O)C(O)(c1ccccc1)C1CCCCC1` (centres unmarked) [oxybutynine], in the data set on salivation, the Effect on salivation entry is “reduce salivation”.

Turning to `Cc1ccc(O)c([C@H](CCN(C(C)C)C(C)C)c2ccccc2)c1` [tolterodine], the “Selectivity between M3 and M2 receptor” value in data set [8] was “more specific for the M2 receptor than for the M3 receptor”. Further, in the data set with salivation, the Effect on salivation result is on record as “reduces salivation less”.
